The test system of experiment [1] is X4 tropic viruses. To be noted: inhibitory concentration of drug; U87/CD4/CXCR4.
Procedure: One cell line expresses CD4 plus CCR5 (U87/CD4/CCR5), also referred to as R5 cells in this application. The other cell line expresses CD4 and CXCR4 (U87/CD4/CXCR4) also referred to as X4 cells in this application. The virus entry assay is performed by infecting individual cell cultures with recombinant virus stocks derived from cells transfected with pHIVenv and pHIV luc or pHIVlucΔU3 vectors. pHIVenv vectors contain patient virus derived sequences and express HIV-1 envelope proteins (gp120SU, gp41TM). In this embodiment viruses are evaluated in using R5 and X4 target cells cultured in 96 well plates (FIG. 3A). Typically, R5 and X4 cells are plated one day prior to infection. […] Co-receptor tropism is assessed by comparing the amount of luciferase activity produced in each cell type, both in the presence and absence of drug. In this embodiment, the results of the assay are interpreted by comparing the ability of each virus to preferentially infect (produce luciferase activity) R5 cells or X4 cells, or both X4 and R5 cells if the virus is dual tropic. The ability of the CCR5 or CXCR4 inhibitor to specifically block infection (inhibit luciferase activity) is also evaluated (FIG. 3B).
Experiment [2] relates to HIV-1 (NL4-3, JRCSF) with mutations in the GIV motif of gp41. Nature of the experiment: Virus entry assay: T-20 susceptibility of site directed gp41 mutant viruses. The experiment is classed as cell-based. To be noted: cells expressing CD4, CCR5 and CXCR4; luciferase; compared by IC50. The protocol: Susceptibility assays for HIV-1 entry inhibitors were performed using packaging host cells consisting of the human embryonic kidney cell line 293 (Cell Culture Facility, UC San Francisco, SF, CA) and target host cells consisting of a human osteosarcoma (HOS) cell line expressing CD4 (HT4) plus CCR5, and CXCR4, or astrocytoma (U-87) cell lines expressing either CD4 and CCR5 or CD4 and CXCR4.
Drug susceptibility testing was performed using pHIVenv and pHIVluc or pHIVlucΔU3. Pseudotyped HIV particles containing envelope proteins encoded by the patient derived segment were produced by transfecting a packaging host cell (HEK 293) with resistance test vector DNA. […] After infection (˜72 h) the target cells are lysed and luciferase activity is measured. […] The amount of luciferase activity detected in the infected cells is used as a direct measure of “infectivity” (FIGS. 1 and 2). […] Drug susceptibility is assessed by comparing the infectivity in the absence of drug to infectivity in the presence of drug. Relative drug susceptibility can be quantified by comparing the susceptibility of the “test” virus to the susceptibility of a well-characterized reference virus (wildtype) derived from a molecular clone of HIV-1, for example NL4-3 or HXB2. […]

Consider `c1cc(CN2CCCNCCNCCCNCC2)ccc1CN1CCCNCCNCCCNCC1` [AMD3100], for which the “Infection of X4 cells by X4 tropic viruses (luciferase activity)” value in experiment [1] was “blocked”. For the compound enfuvirtide, in experiment [2], the “T-20 susceptibility of viruses with one mutation in gp41 motif (DIV, GIM, SIV) vs wildtype virus (GIV)” value is given as “less susceptible” and the “T-20 susceptibility of viruses with two mutations in GIV motif (DIM, SIM, DTV) vs viruses with one or no mutations” value is “less susceptible”.

The values above are taken from patent US9175355B2, “Methods for determining the presence of antibodies blocking viral infection” (Monogram Biosciences, Inc., priority 2002, dated 2015).
